# Test results reported in US6750228B1, “Aromatic sulfone hydroxamic acid metalloprotease inhibitor” (priority 1997, dated 2004).
# Like-named read-outs stand apart in the source and are kept apart here.
# Columns and labels:
# [1] = molecular target: T1, MMP-2 (Homo sapiens, UniProt P08253); assay: biochemical
# T1 construct: made in house; provided by Dr. Gregory Goldberg, Washington University
# T1 sequence (P08253 110-660): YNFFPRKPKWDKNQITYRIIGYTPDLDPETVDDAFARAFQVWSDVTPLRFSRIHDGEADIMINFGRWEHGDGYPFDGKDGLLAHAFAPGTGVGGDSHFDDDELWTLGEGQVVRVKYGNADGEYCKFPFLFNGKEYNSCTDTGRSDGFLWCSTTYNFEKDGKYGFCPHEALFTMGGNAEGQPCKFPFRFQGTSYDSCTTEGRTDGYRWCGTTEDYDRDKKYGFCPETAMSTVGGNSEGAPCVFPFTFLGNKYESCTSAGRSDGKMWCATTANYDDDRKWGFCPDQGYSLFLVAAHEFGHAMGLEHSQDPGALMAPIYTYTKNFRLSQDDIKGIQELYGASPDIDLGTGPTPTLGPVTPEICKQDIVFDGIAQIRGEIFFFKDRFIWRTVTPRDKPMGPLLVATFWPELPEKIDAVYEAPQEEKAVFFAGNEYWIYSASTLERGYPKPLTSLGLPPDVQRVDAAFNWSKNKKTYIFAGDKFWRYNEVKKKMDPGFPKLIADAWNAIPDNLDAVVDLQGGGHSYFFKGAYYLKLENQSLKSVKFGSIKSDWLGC
# Method: (§1) The compounds prepared in the manner described in the Examples above were assayed for activity by an in vitro assay. […] Briefly, 4-aminophenylmercuric acetate (APMA) or trypsin-activated MMPs were incubated with various concentrations of the inhibitor compound at room temperature for 5 minutes.
# (§2) The expressed enzyme was purified first over a heparin agarose column and then over a chelating zinc chloride column. The proenzyme was activated by APMA for use in the assay.
# (§3) MMP-1 expressed in transfected HT-1080 cells was provided by Dr. Harold Welgus of Washington University, St. Louis, Mo. The enzyme was also activated using APMA and was then purified over a hydroxamic acid column. Dr. Welgus also provided transfected HT-1080 cells that expressed MMP-9. Transfected cells that expressed MMP-2 were provided by Dr. Gregory Goldberg, also of Washington University. Studies with MMP-7 were carried out at pH 7.5 in the presence of 0.02% 2-mercaptoethanol using conditions otherwise similar to those used for the other enzymes. The enzyme was obtaind from a hMMP-7-expressing E. coli clone that was a gift of Dr. Steven Shapiro of Washington University, St. Louis, Mo. Further specifics for preparation and use of these enzymes can be found in the scientific literature describing these enzymes. See, for example, Enzyme Nomenclature, Academic Press, San Diego, Calif. […] The enzyme substrate is a methoxycoumarin-containing polypeptide having the following sequence:
# (§4) MCA-ProLeuGlyLeuDpaAlaArgNH2, wherein MCA is methoxycoumarin and Dpa is 3-(2,4-dinitrophenyl)-L-2,3-diaminopropionyl alanine.
# (§5) The buffer used for assays contained 100 mM Tris-HCl, 100 mM NaCl, 10 mM CaCl2 and 0.05 percent polyethyleneglycol (23) lauryl ether at a pH value of 7.5. Assays were carried out at room temperature, and dimethyl sulfoxide (DMSO) at a final concentration of 1 percent was used to dissolve inhibitor compound.
# (§6) The assayed inhibitor compound in DMSO/buffer solution was compared to an equal amount of DMSO/buffer with no inhibitor as control using Microfluor White Plates (Dynatech). The inhibitor or control solution was maintained in the plate for 10 minutes and the substrate was added to provide a final concentration of 4 μM.
# (§7) Inhibition was measured as a reduction in fluorescent intensity as a function of inhibitor concentration, using a Perkin Elmer L550 plate reader. The IC50 values were calculated from those values. The results are set forth in the Inhibition Table A, below, reported in terms of IC50 to three significant figures, where appropriate.
# [2] = molecular target: T2, MMP-13 (Homo sapiens, UniProt P45452); assay: biochemical; conditions: read-out: MMP-13 IC50
# T2 construct: made in house; host or cells: baculovirus / insect cells
# Method: as §1, §2, §3, §4, §5, §6, §7
# [3] = recombinant human MMP-2, MCA peptide substrate 4 μM, pH 7.5, room temperature, read-out: MMP-2 IC50
# [4] = recombinant human MMP-13, MCA peptide substrate 4 μM, pH 7.5, room temperature
Compound,"IC50 [1, 3] [nM]","IC50 [2, 4] [nM]",IC50 ([1]; MMP-2 IC50 (nM)) [nM],IC50 ([1]; read-out: MMP-2 IC50) [nM],IC50 [2] [nM]
CS(=O)(=O)c1ccccc1S(=O)(=O)N1CC(Oc2ccc(S(=O)(=O)C3(C(=O)NO)CCOCC3)cc2)C1 [Example 845],2000,28.6,,,
C=CCN(CC=C)C(=O)C1CCN(c2ccc(S(=O)(=O)C3(C(=O)NO)CCOCC3)cc2)CC1 [Example 48],3200,27,,,
O=C(NO)C1(S(=O)(=O)c2ccc(C3=CCC(c4ccccc4)CC3)cc2)CCOCC1 (centres unmarked) [Example 828],12.8,1.5,,,
O=C(NO)C1(S(=O)(=O)c2ccc(N3CCC(OCc4cccc(C(F)(F)F)c4)CC3)cc2)CCOCC1 [Example 177],520,8.8,,,
O=C(c1ccc(Cl)cc1)C1CCN(c2ccc(S(=O)(=O)C3(C(=O)NO)CCOCC3)cc2)CC1 [Example 857],120,1.3,,,
C#CCN1CCC(C(N)=O)(S(=O)(=O)c2ccc(Sc3ccccc3)cc2)CC1 [Example 2],6000,5500,,,
CSc1ccc(C(=O)C2CCN(c3ccc(S(=O)(=O)C4(C(=O)NO)CCOCC4)cc3)CC2)cc1 [Example 856],250,1.2,,,
CCOc1ccc(C(=O)C2CCN(c3ccc(S(=O)(=O)C4(C(=O)NO)CCN(C5CC5)CC4)cc3)CC2)cc1 [Example 376],230,5.5,,,
CN(C)c1cccc2c(S(=O)(=O)N3CC(Oc4ccc(S(=O)(=O)C5(C(=O)NO)CCOCC5)cc4)C3)cccc12 [Example 852],3000,25,,,
CCCCS(=O)(=O)N1CC(Oc2ccc(S(=O)(=O)C3(C(=O)NO)CCOCC3)cc2)C1 [Example 851],42.5,3.7,,,
COc1ccccc1N1CCN(c2ccc(S(=O)(=O)C3(C(=O)NO)CCOCC3)cc2)CC1 [Example 85],370,130,,,
C=C(C)c1ccc(N2CCN(c3ccc(S(=O)(=O)C4(C(=O)NO)CCN(C5CC5)CC4)cc3)CC2)cc1 [Example 360],5.6,10,,,
Cc1ccc(C(O)C2CCN(c3ccc(S(=O)(=O)C4(C(=O)NO)CCOCC4)cc3)CC2)cc1C (centres unmarked) [Example 826],650,40,,,
CC(C)(C)c1ccc(CC2CCN(c3ccc(S(=O)(=O)C4(C(=O)NO)CCOCC4)cc3)CC2)cc1 [Example 841],1900,285,,,
Cc1ccc(S(=O)(=O)N(C)C2CCN(c3ccc(S(=O)(=O)C4(C(=O)NO)CCOCC4)cc3)CC2)cc1 [Example 834],780,150,,,
O=C(NO)C1(S(=O)(=O)c2ccc(N3CCC(c4nc(-c5cccc(C(F)(F)F)c5)no4)CC3)cc2)CCN(C2CC2)CC1 [Example 388],430,50,,,
O=C(NO)C1(S(=O)(=O)c2ccc(Oc3ccc(C(F)(F)F)cc3)cc2)CCN(C2CC2)CC1 [Example 271],,,0.17,,
Cc1ccc(C2CCN(c3ccc(S(=O)(=O)C4(C(=O)NO)CCOCC4)cc3)CC2)cc1C [Example 869],76.9,2,,,
O=C(C1CCN(c2ccc(S(=O)(=O)C3(C(=O)NO)CCOCC3)cc2)CC1)N1CCN(c2ccc(C(F)(F)F)cc2)CC1 [Example 38],,,,6000,67.4
CN(C)c1ccc(S(=O)(=O)C2CCN(c3ccc(S(=O)(=O)C4(C(=O)NO)CCOCC4)cc3)CC2)cc1 [Example 836],4200,135,,,
CC1CC(C)CN(C(=O)C2CCN(c3ccc(S(=O)(=O)C4(C(=O)NO)CCOCC4)cc3)CC2)C1 (centres unmarked) [Example 55],> 10000,10,,,

Compound,"IC50 [1, 3] [nM]","IC50 [2, 4] [nM]",IC50 ([1]; MMP-2 IC50 (nM)) [nM],IC50 ([1]; read-out: MMP-2 IC50) [nM],IC50 [2] [nM]
O=C(NO)C1(S(=O)(=O)c2ccc(N3CCN(c4ccccc4)CC3)cc2)CCN(C2CC2)CC1 [Example 369],5.4,3.3,,,
O=C(Cc1ccc(Cl)cc1)C1CCN(c2ccc(S(=O)(=O)C3(C(=O)NO)CCOCC3)cc2)CC1 [Example 861],34.9,2,,,
Cc1ccc(C(=O)C2CCN(c3ccc(S(=O)(=O)C4(C(=O)NO)CCN(C5CC5)CC4)cc3)CC2)cc1 [Example 373],80,3,,,
C[C@H](OC1CCN(c2ccc(S(=O)(=O)C3(C(=O)NO)CCN(C4CC4)CC3)cc2)CC1)c1ccccc1 [Example 400],520,23.5,,,
O=C(NO)C1(S(=O)(=O)c2ccc(N3CCC(Sc4nc5ccccc5o4)CC3)cc2)CCN(C2CC2)CC1 [Example 382],260,11.4,,,
O=C(NO)C1(S(=O)(=O)c2ccc(Oc3ccc(C(F)(F)F)cc3)cc2)CCN(C2CC2)CC1 [Example 270],,,1,,
O=C(NO)C1(S(=O)(=O)c2ccc(N3CCN(c4ccc(Cl)cc4)CC3)cc2)CCN(C2CC2)CC1 [Example 354],15.4,1.6,,,
COCCN1CCC(C(N)=O)(S(=O)(=O)c2ccc(Oc3ccc(OC(F)(F)F)cc3)cc2)CC1 [Example 1],8.5,22.7,,,
CN(C)S(=O)(=O)N1CC(Oc2ccc(S(=O)(=O)C3(C(=O)NO)CCOCC3)cc2)C1 [Example 853],120,15.8,,,
O=C(NO)C1(S(=O)(=O)c2ccc(N3CCC(SCc4ccc(C(F)(F)F)cc4)CC3)cc2)CCN(C2CC2)CC1 [Example 394],8,0.5,,,
O=C(NO)C1(S(=O)(=O)c2ccc(N3CCN(c4ccc(C(F)(F)F)cc4)CC3)cc2)CCN(C2CC2)CC1 [Example 356],32.6,2.4,,,
"CNC(=S)N1CCC(C(=O)NO)(S(=O)(=O)c2ccc(Oc3ccc(OC(F)(F)F)cc3)cc2)CC1 [Example 198, N-hydroxy-4[[4-(4-trifluoromethoxyphenoxy)-]sulfonyl]-1-(N-methylthiourea)-4-piperidinecarboxamide]",0.25,0.375,,,
COc1cc(C(=O)C2CCN(c3ccc(S(=O)(=O)C4(C(=O)NO)CCOCC4)cc3)CC2)ccc1Cl [Example 859],440,5.5,,,
COc1ccc(CC(=O)C2CCN(c3ccc(S(=O)(=O)C4(C(=O)NO)CCOCC4)cc3)CC2)cc1 [Example 862],40,1.7,,,
O=C(NO)C1(S(=O)(=O)c2ccc(N3CCN(CCO)CC3)cc2)CCOCC1 [Example 623],1400,350,,,
O=CN1CCC(C(=O)NO)(S(=O)(=O)c2ccc(Oc3ccc(OC(F)(F)F)cc3)cc2)CC1 [Example 452],< 0.1,< 0.1,,,
COc1ccc(N2CCN(c3ccc(S(=O)(=O)C4(C(=O)NO)CCN(C5CC5)CC4)cc3)CC2)cc1 [Example 368],7,,,,
CCc1ccc(C(=O)C2CCN(c3ccc(S(=O)(=O)C4(C(=O)NO)CCN(C5CC5)CC4)cc3)CC2)cc1 [Example 371],400,11.1,,,
CC(=O)c1ccccc1S(=O)(=O)N1CC(Oc2ccc(S(=O)(=O)C3(C(=O)NO)CCOCC3)cc2)C1 [Example 854],3300,40,,,
O=C(NO)C1(S(=O)(=O)c2ccc(Oc3ccc(C(F)(F)F)cc3)cc2)CCN(C2CC2)CC1 [Example 269],,,< 0.1,,
COc1cccc(S(=O)(=O)N2CC(Oc3ccc(S(=O)(=O)C4(C(=O)NO)CCOCC4)cc3)C2)c1 [Example 829],22,6,,,
